Patent US10328092B2, “Methods and compositions for treatment of drug addiction” (The Royal Institution for the Advancement of Learning / …, priority 2015, dated 2019)

How the values were obtained:
[1] = tested on: microglia in the nucleus accumbens; experiment: Microglia activation in nucleus accumbens (Iba1 immunostaining, morphology); type: in vivo, mouse
Description: Resting microglia have a ramified morphology but continuously survey the healthy brain and respond to a variety of activation signals by undergoing progressive morphological and functional changes (Kettenmann et al., 2011). Cocaine administration could activate microglia in the NAc, which could lead to the observed elevation of TNFα. Using the microglia marker Iba1, microglia was labeled in adult mice, 24 hours after a single cocaine injection, 24 hrs after 5 days of daily cocaine injections, or after 10 days of drug abstinence. Although no change was identified in the number of microglia in the NAc at any time point (FIG. 10E), Iba1 intensity was increased in microglia by 5 days of cocaine, and after a period of abstinence (FIG. 6C-D), indicating activation. […] In contrast to the change in microglia, no activation of astrocytes was observed, as judged by GFAP expression. […] This is consistent with the observation that TNFα is derived from microglia and not astrocytes during sensitization.
Mice (8-10 weeks) were perfused and their brains submerged overnight in 4% PFA, cryoprotected with 30% sucrose, and cut in 30 μm thick coronal slices using a cryostat. […] Images of the ventral striatum (nucleus accumbens core and shell) were acquired with a 40× or 60× objective and stacks of 25-30 optical sections (1 μm per section) of depth were Z-projected into a single window and analysed using ImageJ software (NIH).
(§1) The number of Iba1+ microglia were manually counted from 212×212 μm (60× objectives) or 317×317 μm (40× objectives) images. TNFα intensity was measured using the mean grey value of the entire image while Iba1 intensity measurements were obtained using a thresholded area to highlight only the microglia. Cell body area (μm^2) was measured based on Iba1 staining and using the freehand selection tool. […] The following parameters were analyzed for 40 microglia per group: total process length (sum of length of all processes), total process volume, process diameter and number of branch points and terminals. […]

TNFα mRNA = type: in vivo, mouse
Description: For tissue, total RNA from the ventral striatum was extracted and isolated by RNAqueous-4PCR total RNA isolation kit (Ambion, AM1914), according to manufacturer's instructions. For microglia and astrocyte cultures, total RNA was isolated by RNeasy kit (Qiagen, 74136). For all sample types, 0.5 μg of total RNA was used for cDNA synthesis with Quantitect Reverse Transcription Kit (Qiagen, 205313), and quantitative RT-PCR was performed with Fast SYBR-Green Master Mix (Applied Biosystems) detected by StepOne Plus RealTime PCR system (Applied Biosystems). The sequences of qPCR primers used for mRNA quantification in this study were obtained from Integrated DNA Technologies, and are as follows: mouse TNFα forward, […] (SEQ ID NO: 1) [200 nM]; mouse TNFα reverse, […] (SEQ ID NO: 2) [200 nM]; mouse GAPDH forward, […] (SEQ ID NO: 3) [300 nM]; mouse GAPDH reverse, […] (SEQ ID NO: 4) [300 nM]; rat TNFα forward, […] (SEQ ID NO: 1) [600 nM]; rat TNFα reverse, […] […] After 40 cycles, the Ct values were determined. To normalize the samples, ΔCt between TNFα and GADPH or cyclophilin Ct values was calculated. The x-fold difference in expression between the different treatments was then determined by subtraction of the ΔCt values and termed ΔΔCt. Finally, the total change was calculated as 2-ΔΔct and the relative amount compared with control samples was deducted.

TNFα = TNFα mRNA / protein in ventral striatum (NAc) after in vivo treatment; design: species or system mouse; conditions: for TNFα mRNA in the ventral striatum: single injection of MPLA 10 μg
Description: To determine the effect of in vivo cocaine exposure on TNFα levels in the ventral striatum, TNFα mRNA and protein levels were measured in mice given intraperitoneal injections of saline or cocaine. […] To understand the impact of TNFα on synaptic function in the NAc, AMPA/NMDA ratios were measured at glutamatergic synapses on MSNs in the NAc core. Alteration in NAc core AMPA receptors are involved in the expression of behavioral sensitization to psychostimulants (Kalives, 2009).
Mice (8-10 weeks) were perfused and their brains submerged overnight in 4% PFA, cryoprotected with 30% sucrose, and cut in 30 μm thick coronal slices using a cryostat. The sections were incubated for 4 hours with blocking solution (2% normal goat serum, 3% BSA, 0.2% Triton X-100 in PBS) before incubation overnight at 4 C with primary antibodies in blocking solution (rabbit anti-Iba1 antibody [019-19741, Wako; 1:800; RRID: AB_2566825], chicken anti-GFAP antibody [AB5541, Millipore; 1:500; RRID: AB_177521], rabbit anti-NeuN [ab104225, Abcam, 1:400; RRID: AB_10711153], and rabbit anti-TNFα antibody [ab6671, Abcam, 1:100; RRID: AB_305641] or mouse anti-TNFα antibody [ab1793, Abcam, 1:100; RRID: AB_302615]). Sections were washed (2×15 min with PBST [0.05% Tween20] and 1×15 min with PBS at RT) and incubated for 2 hrs at room temperature in secondary antibodies (anti-rabbit, anti-chicken, or anti-mouse IgG-conjugated Alexa Fluorochrome [Invitrogen; 1:400]). Sections were washed and briefly (<30 seconds) incubated with Hoechst 33342 [H1399, Molecular Probes; 1:10,000] in PBS. The stained sections were imaged using an Olympus FluoView FV1000 confocal microscope with Fluoview imaging software (FV10-ASW). Images of the ventral striatum (nucleus accumbens core and shell) were acquired with a 40× or 60× objective and stacks of 25-30 optical sections (1 μm per section) of depth were Z-projected into a single window and analysed using ImageJ software (NIH).
as §1, with “tool. Additional analysis of microglia morphology in saline and cocaine treated mice was done using IMARIS software (Bitplane).” for “tool.”
After 40 cycles, the Ct values were determined.

COC(=O)[C@H]1[C@@H](OC(=O)c2ccccc2)C[C@@H]2CC[C@H]1N2C [cocaine]
microglia cell body area ([1]; 5 d cocaine): 37.2±0.9 μm^2 | decrease of total length of microglia processes ([1]; after 5 days cocaine): 20% | increase of TNFα mRNA in microglia cells (TNFα mRNA; 5 daily injections of cocaine, striatum CD11b+ fraction): ~2.5 fold | decrease in TNFα mRNA in non-microglial cells (TNFα mRNA; five daily cocaine treatments, other striatal cell types): 3.26±0.21 fold

monophosphoryl lipid A [MPLA]
TNF-α levels in vivo, lower than LPS (TNFα; compared with LPS): 10 fold | TNFα mRNA in the ventral striatum (TNFα; 4 hours): significantly increases | TNFα mRNA in the ventral striatum (TNFα; 24 hours): significantly increases | Iba1 intensity in nucleus accumbens ([1]; 24 hours after a single MPLA injection 10 μg, after 10 day withdrawal from cocaine): significantly increased
